Tested on: IL-1β secretion, THP-1 cells
Experiment: IL-1β secretion assay in PMA-differentiated THP-1 cells stimulated with LPS and nigericin (ELISA readout)
Assay type: cell-based
Conditions: Homo sapiens, THP-1, inhibition of IL-1β secretion, 25 ng/mL LPS then nigericin
Protocol: Compounds as provided herein were tested in the following assay. Cell culture medium employed contained RPMI 1640 medium (89%), FBS (10%), Pen/Strep (1%), and 2-mercaptoethanol (0.05 mM). Freezing medium was made up of 90% FBS and 10% DMSO. THP-1 cells were removed from the liquid nitrogen and placed into a 37° C. water bath to thaw, until signs of ice dissipated. The cells were then added to 9 mL of warm cell culture medium and centrifuged for 5 minutes at 1000 rpm. The supernatant was discarded, and the cells were resuspended in new cell culture medium. THP-1 cells were then split and cultured in the cell culture medium, being passaged every 2-3 days with the cell density will be maintained between 5×10^5 and 1.5×10^6 viable cells/mL.
PMA was dissolved in DMSO to make a stock solution at 5 mg/ml and stored in 10 µl aliquots at -20° C. for single use. PMA is added to normal growth medium. LPS was diluted with 1 mL of water solution to provide a 1 mg/mL stock solution and stored in 15 µl aliquots at -20° C. for single use. Nigericin is diluted in ice cold 100% ethanol to 5 mg/ml (6.7 mM) and stored in 75 µL aliquots at -20° C. for single use. Serum-free media contains RPMI 1640 medium (99%), Pen/Strep (1%), and 2-mercaptoethanol (0.05 mM). The two control conditions used to qualify and normalize test compound dose-response curves were as follows: High Control = 25 ng/mL LPS, 5 µM Nigericin, 0.5% DMSO, Low Control = 25 ng/mL, LPS, 0.5% DMSO.
THP-1 cells were diluted to provide a suspension at a concentration of 1.0×10^6 cells/mL with the total volume of suspension required to enable the desired number of assay plates. The growth media was supplemented with PMA (5 ng/mL final concentration) and the cells were incubated at 37° C. under a humidified atmosphere of 5% CO2 for 40 h.
All media was carefully aspirated from each culture flask. The cells were washed carefully with 1x DPBS. The cells were then briefly digested with trypsin LE for 5 minutes at 23° C. and immediately resuspended in cell growth media. After resuspension, the cells were centrifuged at 1000 rpm for 3 minutes and the supernatant was discarded. The cells were resuspended in DPBS and once again centrifuged at 1000 rpm for 5 minutes. The supernatant was discarded and the cell pellet was resuspended in serum-free media supplemented with LPS (25 ng/mL final concentration) to enable the distribution of 30 K THP-1 cells within 45 µL of media into each well of 384-well PDL-coated plates. The 384-well plates were then incubated at 37° C. under a humidified atmosphere of 5% CO2 for 2 h. Following this period, test compounds were dispensed by Tecan across the desired concentration range with all wells normalized to a final 0.5 % DMSO concentration. The plates were then then incubated at 37° C. under a humidified atmosphere of 5% CO2 for 1 h. Following this period, 5 µL of the […] nigericin stock solution was added to each of the appropriate wells and plates were centrifuged at 1000 rpm for 30 seconds. The plates were the immediately reintroduced to the incubator at 37° C. under a humidified atmosphere of 5% CO2 for 2 h. After this time, 35 µL/well of supernatant was collected and transferred into v-bottom plate and centrifuged at 1000 rpm for 1 minute. These supernatant aliquots were analyzed using an IL-Iβ detection kit as described below. If needed, the test samples could be snap frozen and stored at -80° C. until analyzed.
To prepare each ELISA plate, capture antibody (mAb Mt175) was diluted with PBS to a final concentration of 2 µg/mL and then 20 µL of this solution was added to each well of the ELISA plate. Each plate was allowed to incubate overnight at 4° C. The next day, the capture antibody solution was removed and discarded. Each ELISA plate was washed 4 times with PBST followed by the addition of 25 µL/well of blocking buffer (Licor-927-40010) supplemented with 0.1% Tween 20. Each ELISA plate was then allowed to incubate for 1 hour at 23° C. […]

Compound	IC50 (class column of Table 3) [nM]	IC50 (numeric column of Table 3) [nM]
CSc1ccc2c(=O)n(CC(=O)Nc3ncncc3F)nc(C(C)C)c2n1 [Example 23, N-(5-fluoropyrimidin-4-yl)-2-(2-methylsulfanyl-5-oxo-8-propan-2-ylpyrido[2,3-d]pyridazin-6-yl)acetamide]	< 10000	2070
CC(C)c1nn(CC(=O)Nc2ncncc2F)c(=O)c2ccc(C(F)(F)F)nc12 [Example 24, N-(5-fluoropyrimidin-4-yl)-2-[5-oxo-8-propan-2-yl-2-(trifluoromethyl)pyrido[2,3-d]pyridazin-6-yl]acetamide]	< 10000	138
O=C(Cn1nc(C(F)F)c2cc(C(F)(F)F)ccc2c1=O)Nc1ncc(F)cn1 [Example 25, 2-[4-(difluoromethyl)-1-oxo-6-(trifluoromethyl)phthalazin-2-yl]-N-(5-fluoropyrimidin-2-yl)acetamide]	< 10000	689
O=C(Cn1nc(C(F)F)c2c(F)c(Br)ccc2c1=O)Nc1ncc(F)cn1 [Example 26, 2-[6-bromo-4-(difluoromethyl)-5-fluoro-1-oxophthalazin-2-yl]-N-(5-fluoropyrimidin-2-yl)acetamide]	< 10000	78
O=C(Cn1nc(C(F)F)c2c(F)c(Br)ccc2c1=O)Nc1ncccn1 [Example 27, 2-[6-bromo-4-(difluoromethyl)-5-fluoro-1-oxophthalazin-2-yl]-N-pyrimidin-2-ylacetamide]	< 10000	137
N#Cc1cnc(NC(=O)Cn2nc(C(F)F)c3c(F)c(Br)ccc3c2=O)c(F)c1 [Example 28, 2-[6-bromo-4-(difluoromethyl)-5-fluoro-1-oxophthalazin-2-yl]-N-(5-cyano-3-fluoropyridin-2-yl)acetamide]	< 10000	307
COc1ccc(NC(=O)Cn2nc(C(C)C)c3cc(Br)ccc3c2=O)cn1 [Example 29, 2-(6-bromo-1-oxo-4-propan-2-ylphthalazin-2-yl)-N-(6-methoxypyridin-3-yl)acetamide]	< 10000	286
CC(C)c1nn(CC(=O)Nc2ccc(Cl)nc2)c(=O)c2ccc(Br)cc12 [Example 30, 2-(6-bromo-1-oxo-4-propan-2-ylphthalazin-2-yl)-N-(6-chloropyridin-3-yl)acetamide]	< 10000	519
Cc1ncc(F)c(NC(=O)Cn2nc(C(C)C)c3cc(Br)ccc3c2=O)n1 [Example 31, 2-(6-bromo-1-oxo-4-propan-2-ylphthalazin-2-yl)-N-(5-fluoro-2-methylpyrimidin-4-yl)acetamide]	< 10000	1320
COc1nn(CC(=O)Nc2ncc(F)cn2)c(=O)c2ccc(Br)cc12 [Example 32, 2-(6-bromo-4-methoxy-1-oxophthalazin-2-yl)-N-(5-fluoropyrimidin-2-yl)acetamide]	< 10000	128
CC(C)c1nn(CC(=O)Nc2ccncn2)c(=O)c2ccc(Br)cc12 [Example 33, 2-(6-bromo-1-oxo-4-propan-2-ylphthalazin-2-yl)-N-pyrimidin-4-ylacetamide]	< 10000	176
CC(C)c1nn(CC(=O)Nc2ccnc(C(F)(F)F)n2)c(=O)c2ccc(Br)cc12 [Example 34, 2-(6-bromo-1-oxo-4-propan-2-ylphthalazin-2-yl)-N-[2-(trifluoromethyl)pyrimidin-4-yl]acetamide]	< 10000	1890
CC(C)c1nn(CC(=O)Nc2ncccc2F)c(=O)c2ccc(Br)cc12 [Example 35, 2-(6-bromo-1-oxo-4-propan-2-ylphthalazin-2-yl)-N-(3-fluoropyridin-2-yl)acetamide]	< 10000	529
CC(C)c1nn(CC(=O)Nc2nc(Cl)ccc2F)c(=O)c2ccc(Br)cc12 [Example 36, 2-(6-bromo-1-oxo-4-propan-2-ylphthalazin-2-yl)-N-(6-chloro-3-fluoropyridin-2-yl)acetamide]	< 10000	2800
CC(C)c1nn(CC(=O)Nc2c(F)cncc2F)c(=O)c2ccc(Br)cc12 [Example 37, 2-(6-bromo-1-oxo-4-propan-2-ylphthalazin-2-yl)-N-(3,5-difluoropyridin-4-yl)acetamide]	< 10000	4950
CC(C)c1nn(CC(=O)Nc2ncc(F)cc2F)c(=O)c2ccc(Br)cc12 [Example 38, 2-(6-bromo-1-oxo-4-propan-2-ylphthalazin-2-yl)-N-(3,5-difluoropyridin-2-yl)acetamide]	< 10000	913
CC(C)c1nn(CC(=O)Nc2ncccn2)c(=O)c2ccc(Br)cc12 [Example 39, 2-(6-bromo-1-oxo-4-propan-2-ylphthalazin-2-yl)-N-pyrimidin-2-ylacetamide]	< 10000	54
CC(C)c1nn(CC(=O)Nc2nc(F)ccc2F)c(=O)c2ccc(Br)cc12 [Example 40, 2-(6-bromo-1-oxo-4-propan-2-ylphthalazin-2-yl)-N-(3,6-difluoropyridin-2-yl)acetamide]	< 10000	1060
CC(C)c1nn(CC(=O)Nc2ncc(C(F)(F)F)cc2F)c(=O)c2ccc(Br)cc12 [Example 41, 2-(6-bromo-1-oxo-4-propan-2-ylphthalazin-2-yl)-N-[3-fluoro-5-(trifluoromethyl)pyridin-2-yl]acetamide]	< 10000	163
CC(C)c1nn(CC(=O)NC2CCC(F)(F)C2)c(=O)c2ccc(Br)cc12 (stereo not drawn) [Example 42, 2-(6-bromo-1-oxo-4-propan-2-ylphthalazin-2-yl)-N-(3,3-difluorocyclopentyl)acet amide]	< 10000	3350
CC1CC(NC(=O)Cn2nc(C(C)C)c3cc(Br)ccc3c2=O)CCO1 (stereo not drawn) [Example 43, 2-(6-bromo-1-oxo-4-propan-2-ylphthalazin-2-yl)-N-(2-methyloxan-4-yl)acetamide]	< 10000	4230
CC(C)c1nn(CC(=O)NC2(C)CCOCC2)c(=O)c2ccc(Br)cc12 [Example 44, 2-(6-bromo-1-oxo-4-propan-2-ylphthalazin-2-yl)-N-(4-methyloxan-4-yl)acetamide]	10000 to 15000	12300
CC(C)c1nn(CC(=O)Nc2ccc(C(F)(F)F)nc2)c(=O)c2ccc(Br)cc12 [Example 45, 2-(6-bromo-1-oxo-4-propan-2-ylphthalazin-2-yl)-N-[6-(trifluoromethyl)pyridin-3-yl]acetamide]	< 10000	1190
CC(C)c1nn(CC(=O)NC2CCCC2(F)F)c(=O)c2ccc(Br)cc12 (stereo not drawn) [Example 46, 2-(6-bromo-1-oxo-4-propan-2-ylphthalazin-2-yl)-N-(2,2-difluorocyclopentyl)acet amide]	< 10000	1170
CC(C)c1nn(CC(=O)NC2CCc3nncn3C2)c(=O)c2ccc(Br)cc12 (stereo not drawn) [Example 47, 2-(6-bromo-1-oxo-4-propan-2-ylphthalazin-2-yl)-N-(5,6,7,8-tetrahydro-[1,2,4]triazolo[4,3-a]pyridin-6-yl)acetamide]	< 10000	2550
CC(C)c1nn(CC(=O)Nc2cnn(C3CCC3)c2)c(=O)c2ccc(Br)cc12 [Example 48, 2-(6-bromo-1-oxo-4-propan-2-ylphthalazin-2-yl)-N-(1-cyclobutylpyrazol-4-yl)acetamide]	< 10000	4090
CC(C)c1nn(CC(=O)Nc2ccnn2C)c(=O)c2ccc(Br)cc12 [Example 49, 2-(6-bromo-1-oxo-4-propan-2-ylphthalazin-2-yl)-N-(2-methylpyrazol-3-yl)acetamide]	< 10000	1700

— patent US20230357162A1, “COMPOUNDS, COMPOSITIONS AND METHODS” (Denali Therapeutics Inc., priority 2020, published 2023)
